The values that follow come from patent US20240199605A1, “SMALL MOLECULAR INHIBITORS OF NF-kB INDUCING KINASE” (Janssen Pharmaceutica NV, priority 2019, published 2024).

The subject of test [1] is p-IKKα levels in L363 (NIK translocated multiple myeloma) cells. Description: Effect of compounds on p-IKKα levels in L363 cells (AlphaLISA SureFire Ultra). Format: cell-based, human. Conditions: BAFF stimulated, MG132, 6 h, average of values, read-out: Assay 2 IC50. An outline of the steps: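 Inhibition of p-IKKα (Ser176/180) read by AlphaLISA after 6 h, 37 °C compound exposure (11-point 1:3 series, 0.3% DMSO) of L363 cells pre-incubated overnight ± 250 ng/ml BAFF and plated ± BAFF ± 10 μM MG132. Normalised to BAFF/MG132/DMSO and unstimulated controls; IC50 by sigmoidal fitting, duplicates.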

The target of test [2] is recombinant human NF-kappaB-inducing kinase (NIK/MAP3K14) (Homo sapiens (Human), UniProt Q99558). Description: Inhibition of auto-phosphorylation of recombinant human NIK/MAP3K14 (AlphaScreen). The settings on record: NIK auto-phosphorylation, 5 μM ATP, 1 nM NIK, 2 h at 25° C.; average of values. Format: biochemical. In a few lines: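 GST-tagged NIK (1 nM) auto-phosphorylated with 5 μM ATP for 2 h at 25° C. in 50 mM Tris pH 7.5, 5 mM MgCl2, 1 mM EGTA, 1 mM DTT, 0.1 mM Na3VO4, 0.01% Tween 20 (0.7% DMSO). Detected by AlphaScreen via anti-phospho-IKK Ser176/180 antibody; IC50 from sigmoidal fit of % inhibition versus log concentration.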
Chain of recombinant human NF-kappaB-inducing kinase (NIK/MAP3K14) (Q99558 whole entry): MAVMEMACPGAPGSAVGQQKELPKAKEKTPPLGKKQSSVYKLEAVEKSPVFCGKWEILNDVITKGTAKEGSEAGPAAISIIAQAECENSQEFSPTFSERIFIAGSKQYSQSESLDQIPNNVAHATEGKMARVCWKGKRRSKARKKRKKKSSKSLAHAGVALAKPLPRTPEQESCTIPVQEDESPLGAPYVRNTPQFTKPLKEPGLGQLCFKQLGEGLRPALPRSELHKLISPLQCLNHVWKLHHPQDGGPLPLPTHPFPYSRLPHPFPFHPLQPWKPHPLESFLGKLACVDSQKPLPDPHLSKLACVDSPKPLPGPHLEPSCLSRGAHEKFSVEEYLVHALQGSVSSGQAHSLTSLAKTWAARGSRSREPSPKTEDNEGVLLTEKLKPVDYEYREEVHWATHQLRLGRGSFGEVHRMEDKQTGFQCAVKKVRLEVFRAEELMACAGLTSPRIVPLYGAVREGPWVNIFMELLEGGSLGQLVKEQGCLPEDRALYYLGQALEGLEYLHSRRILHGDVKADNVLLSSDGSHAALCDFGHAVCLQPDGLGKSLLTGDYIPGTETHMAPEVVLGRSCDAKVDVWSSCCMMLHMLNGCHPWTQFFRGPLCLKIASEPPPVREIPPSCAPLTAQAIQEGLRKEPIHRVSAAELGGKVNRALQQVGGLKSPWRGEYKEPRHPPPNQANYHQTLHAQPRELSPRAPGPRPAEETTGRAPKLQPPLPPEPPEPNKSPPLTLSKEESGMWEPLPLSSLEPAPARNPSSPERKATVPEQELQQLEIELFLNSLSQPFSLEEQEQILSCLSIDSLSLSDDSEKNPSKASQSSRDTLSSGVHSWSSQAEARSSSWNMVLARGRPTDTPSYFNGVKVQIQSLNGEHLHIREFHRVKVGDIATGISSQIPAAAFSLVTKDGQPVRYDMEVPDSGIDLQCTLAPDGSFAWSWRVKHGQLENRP
In general terms: In Alpha technology, singlet oxygen from a donor bead excites a nearby acceptor bead.

Molecules are shown by their SMILES. Like-named read-outs stand apart in the source and are kept apart here. Where only a bound is given, the exact number is not on record here.

For orientation: IC50 means the concentration at which inhibition is half-maximal. For the compound `Cc1nccc2ccc(-c3cccc(C#C[C@]4(O)CCN(C)C4=O)c3)nc12` [Example 280, (R)-3-Hydroxy-1-methyl-3-((3-(8-methyl-1,7-naphthyridin-2-yl)phenyl)ethynyl)pyrrolidin-2-one], the IC50 in test [1] (Homo sapiens, L-363, 6 h) is 720 nM; in test [2] it was 45 nM.

For `[2H]C([2H])([2H])N1CCC(O)(C#Cc2cccc(-c3ncc4ccnc(N)c4n3)c2)C1=O` (stereo in doubt) [Example 66, (R)-3-[2-[3-(8-Aminopyrido[3,4-d]pyrimidin-2-yl)phenyl]ethynyl]-3-hydroxy-1-(trideuteriomethyl)pyrrolidin-2-one], the IC50 in test [1] (Homo sapiens, L-363, 6 h) is 4.5 nM; in test [2], at most 0.5 nM.

`Cc1ccc(C#C[C@]2(O)CCn3ccnc32)cc1-c1ccc2ccnc(N)c2c1` [Example 81, (R)-7-[2-[3-(1-Amino-7-isoquinolyl)-4-methyl-phenyl]ethynyl]-5,6-dihydropyrrolo[1,2-a]imidazol-7-ol]: the IC50 worked out at 1980 nM in test [1] (Homo sapiens, L-363, 6 h) and 11 nM in test [2].

Turning to `Cc1ncnc2ccc(-c3cccc(C#C[C@]4(O)CCN(C)C4=O)c3)nc12` [Example 23, (R)-3-Hydroxy-1-methyl-3-((3-(4-methylpyrido[3,2-d]pyrimidin-6-yl)phenyl)ethynyl)pyrrolidin-2-one], the 50% inhibitory concentration (IC50) stood at 260 nM in test [1] (Homo sapiens, L-363, 6 h) and 10 nM in test [2].

Turning to `CN1CC[C@@](O)(C#Cc2cccc(-c3ccc4ncnc(N5CC(S(C)(=O)=O)C5)c4n3)c2)C1=O` [Example 245, (R)-3-Hydroxy-1-methyl-3-((3-(4-(3-(methylsulfonyl)azetidin-1-yl)pyrido[3,2-d]pyrimidin-6-yl)phenyl)ethynyl)pyrrolidin-2-one], the 50% inhibitory concentration (IC50) came to 1190 nM in test [1] (Homo sapiens, L-363, 6 h) and 40 nM in test [2].

As to `CN1CC[C@@](O)(C#Cc2cccc(-c3ccc4ncnc(N5CCCC5)c4n3)c2)C1=O` [Example 222, (R)-3-Hydroxy-1-methyl-3-((3-(4-(pyrrolidin-1-yl)pyrido[3,2-d]pyrimidin-6-yl)phenyl)ethynyl)pyrrolidin-2-one], the IC50 came to 390 nM in test [1] (Homo sapiens, L-363, 6 h) and 4.2 nM in test [2].

`[2H]c1nc(N)c2nc(-c3cccc(C#C[C@]4(O)CCN(C)C4=O)c3)cc(C3CCNCC3)c2n1` [Example 287, (R)-3-((3-(4-Amino-8-(piperidin-4-yl)pyrido[3,2-d]pyrimidin-6-yl-2-d)phenyl)ethynyl)-3-hydroxy-1-methylpyrrolidin-2-one]: the IC50 in test [1] (Homo sapiens, L-363, 6 h) was above 5000 nM; in test [2], 44 nM.

`[2H]C([2H])([2H])N1CC[C@@](O)(C#Cc2ccc(C)c(-c3ccc4ccnc(N)c4c3)c2)C1=O` [Example 70, (R)-3-[2-[3-(1-Amino-7-isoquinolyl)-4-methyl-phenyl]ethynyl]-3-hydroxy-1-(trideuteriomethyl)pyrrolidin-2-one]: the IC50 in test [1] came out at 2210 nM; in test [2], 26 nM.

As for `Cc1nc(N)c2nc(-c3cccc(C#C[C@@]4(O)C[C@H](C)N(C)C4=O)c3)ccc2n1` [Example 266, (3S,5S)-3-((3-(4-Amino-2-methylpyrido[3,2-d]pyrimidin-6-yl)phenyl)ethynyl)-3-hydroxy-1,5-dimethylpyrrolidin-2-one], the IC50 was 3700 nM in test [1] (Homo sapiens, L-363, 6 h) and 680 nM in test [2].

For `Cc1cc([C@](C)(O)C#Cc2ccc(C)c(-c3ncc4ccnc(N)c4n3)c2)no1` [Example 82, (R)-4-(3-(8-Aminopyrido[3,4-d]pyrimidin-2-yl)-4-methylphenyl)-2-(5-methylisoxazol-3-yl)but-3-yn-2-ol], the half-maximal inhibitory concentration (IC50) in test [1] (Homo sapiens, L-363, 6 h) was determined as 2000 nM; in test [2] it was 31 nM.

For `CN1CC[C@@](O)(C#Cc2cccc(-c3cc(C#N)c4ncnc(N)c4c3)c2)C1=O` [Example 126, (R)-4-Amino-6-(3-((3-hydroxy-1-methyl-2-oxopyrrolidin-3-yl)ethynyl)phenyl)quinazoline-8-carbonitrile], the IC50 in test [1] (Homo sapiens, L-363, 6 h) stood at 820 nM; in test [2] it was 0.9 nM.
